Patent US20040235733A1, “Methods and reagents for reducing polyglutamine toxicity” (priority 2003, published 2004)
“Also recorded” adds a separate entry of the source.

Biological target: T1, CRM-1 export receptor (Mus musculus, UniProt Q6P5F9)
T1 construct: NIH-3T3 cells were transfected with the indicated GFP reporter constructs; endogenous in cells; host or cells: NIH-3T3
Experiment: Leptomycin B Nuclear Export Signal Assay (GFP reporter localization by confocal microscopy)
Type: cell-based
Settings: NIH-3T3 cells, 24 hrs post-transfection, 200 nM Leptomycin B for 2 hrs
Experimental: The Leptomycin B Nuclear Export Signal Assay used NIH-3T3 cells grown on glass coverslips (Fisher) and transfected using Lipofectamine 2000 according to the manufacturers protocol. Cells 24 hrs post-transfection were treated with 200 nM Leptomycin B (Sigma) or DMSO (Mock) for 2 hrs. Cells were fixed with 3% PFA and mounted using ProLong (Molecular Probes) mounting medium. Confocal microscopy was performed on a Zeiss LSM 510 confocal system using an Axiovert 100 M microscope and a Plan/Apochromat 100×/Oil objective.

T1 sequence (Q6P5F9 whole entry): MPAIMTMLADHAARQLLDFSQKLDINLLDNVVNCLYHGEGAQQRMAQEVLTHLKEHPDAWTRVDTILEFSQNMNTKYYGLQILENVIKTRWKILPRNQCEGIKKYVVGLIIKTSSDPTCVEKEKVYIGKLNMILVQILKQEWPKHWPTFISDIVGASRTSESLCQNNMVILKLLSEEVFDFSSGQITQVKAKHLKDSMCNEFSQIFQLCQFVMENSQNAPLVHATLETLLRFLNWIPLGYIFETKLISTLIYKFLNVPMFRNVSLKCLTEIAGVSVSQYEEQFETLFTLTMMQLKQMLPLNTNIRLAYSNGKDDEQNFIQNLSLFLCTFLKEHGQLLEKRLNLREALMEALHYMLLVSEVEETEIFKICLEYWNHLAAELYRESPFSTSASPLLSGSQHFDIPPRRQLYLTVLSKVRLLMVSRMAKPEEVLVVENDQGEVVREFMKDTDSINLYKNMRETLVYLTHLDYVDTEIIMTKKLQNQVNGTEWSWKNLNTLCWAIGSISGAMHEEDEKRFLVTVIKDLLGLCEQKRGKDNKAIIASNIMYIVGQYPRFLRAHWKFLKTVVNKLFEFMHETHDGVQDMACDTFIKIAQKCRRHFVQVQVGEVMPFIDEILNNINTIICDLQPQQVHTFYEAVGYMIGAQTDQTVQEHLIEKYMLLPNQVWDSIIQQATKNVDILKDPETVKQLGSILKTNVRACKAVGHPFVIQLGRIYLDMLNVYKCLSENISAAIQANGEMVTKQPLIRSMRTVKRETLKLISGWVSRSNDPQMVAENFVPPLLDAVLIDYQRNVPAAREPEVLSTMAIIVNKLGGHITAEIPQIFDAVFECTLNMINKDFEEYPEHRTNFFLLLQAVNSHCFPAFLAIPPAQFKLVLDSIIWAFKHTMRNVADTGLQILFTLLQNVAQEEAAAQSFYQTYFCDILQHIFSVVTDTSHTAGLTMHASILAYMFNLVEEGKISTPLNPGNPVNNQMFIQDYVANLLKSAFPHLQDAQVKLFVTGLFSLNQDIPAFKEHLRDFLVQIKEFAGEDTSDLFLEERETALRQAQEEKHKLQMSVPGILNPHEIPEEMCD

CCC(=C/[C@H](C)C/C=C/C(C)=C/[C@@H](C)C(=O)[C@@H](C)[C@H](O)[C@@H](C)C/C(C)=C/C(=O)O)/C=C/[C@@H]1OC(=O)C=C[C@@H]1C [LMB, Leptomycin B]
effect on localization of GFP or NLS-GFP: unaffected
effect on nuclear exclusion (cytoplasmic localization) of Htt 1-17-NLS-GFP: unaffected; also recorded: no effect
effect on nuclear exclusion of control NES-GFP: quite sensitive; also recorded: efficiently reversed
